Laboratory results taken from patent publication US20100173888A1 (Pfizer Inc, priority 2008, published 2010).

The molecules below were run against human recombinant H-PGDS (Homo sapiens, UniProt O60760) (assay: Fluorescence intensity h-PGDS TBA enzyme assay (PGH2 depletion, MDA/TBA fluorescence)). Details: 1:175,000 human recombinant H-PGDS, 42 second reaction, 3-fold serial dilutions, highest concentration typically 1 μM.
Assay type: biochemical
Description: Fluoresecence Intensity h-PGDSTBA Enzyme Assay
Prostaglandin D Synthase (PGDS) converts the substrate prostaglandin H2 (PGH2) to prostaglandin D2. The depletion of PGH2 was measured via an Fe(II) reduction of the remaining PGH2 to malondialdehyde (MDA) and 12-HHT. The enzyme assay is based on the quantitative formation of a fluorescent complex from the non-fluorescent compounds MDA and 2-thiobarbituric acid (TBA), substantially as described in U.S. patent application publication US-2004/152148 by Lombardt.
The enzyme assay (31 μls) contained 100 mM Tris base pH 8.0, 100 μM MgCl2, 0.1 mg/ml IgG Rabbit serum, 5.0 μM PGH2 (Cayman; ethanol solution, #17020), 2.5 mM L-Glutathione (Sigma; reduced form. #G4251), 1:175,000 human recombinant H-PGDS (from 1 mg/ml), 0.5% DMSO and inhibitor (varying concentration). Three μls of diluted inhibitor (dissolved in DMSO) was plated into a 384-well assay plate followed by a 25 μl addition of an enzyme solution containing h-PGDS, Tris, MgCl2, IgG and L-Glutathione. After preincubation of inhibitor and enzyme solution for 10 minutes at room temperature, the reaction was initiated with a 3 μl addition of substrate solution in 10 mM HCl. The reaction was terminated after 42 second by the addition (3 μl) of stop buffer containing FeCl2 and citric acid. After addition of 45.5 μls of TBA plates were heated for one hour in a 70° C. oven. Plates were cooled at room temperature overnight and read on a plate reader the next day with excitation @ 530 nm and emission @ 565 nm.
IC50' s of inhibitors were calculated with a 4-parameter fit using 11 inhibitor concentrations in duplicate with 3-fold serial dilutions. Controls on each plate included no inhibitor (zero % effect) and an inhibitor 10-fold in excess of its' IC50 (100% effect). The highest inhibitor concentration tested was typically 1 μM.

Chain of human recombinant H-PGDS (O60760 whole entry): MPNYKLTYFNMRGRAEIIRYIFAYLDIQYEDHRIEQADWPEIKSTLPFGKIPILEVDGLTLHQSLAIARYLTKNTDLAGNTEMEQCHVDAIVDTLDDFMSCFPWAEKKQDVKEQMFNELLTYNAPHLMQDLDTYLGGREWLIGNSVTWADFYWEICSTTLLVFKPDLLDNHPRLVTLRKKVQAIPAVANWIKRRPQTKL

SMILES | IC50
O=C(N[C@H]1CCC[C@@H](NC(=O)N2CCOCC2)C1)c1ccc(-c2cccc(F)c2)nc1 (relative stereo) [Example 267] | 11 nM
CN1CCN(C(=O)N[C@@H]2CCC[C@H](NC(=O)c3ccc(-c4cccc(F)c4)nc3)C2)CC1 (relative stereo) [Example 268, N-(cis-3-({[6-(3-Fluorophenyl)pyridine-3-yl]carbonyl}amino)cyclohexyl]-4-methylpiperazine-1-carboxamide] | 24.6 nM
CN(C(=O)[C@@H]1CCC[C@H](NC(=O)c2ccc(-c3cccc(F)c3)nc2)C1)C1CCNCC1 (stereo in doubt) [Example 192, 6-(3-Fluorophenyl)-N-{(1S,3R)-3-[methyl(piperidin-4-yl)carbamoyl]cyclohexyl}nicotinamide] | 15.3 nM
CN[C@H]1CC[C@H](NC(=O)[C@@H]2CCC[C@H](NC(=O)c3ccc(-c4cccc(F)c4)nc3)C2)CC1 (stereo in doubt) [Example 193, 6-(3-Fluorophenyl)-N-[(1S,3R)-3-{[trans-4-(methylamino)cyclohexyl]carbamoyl}cyclohexyl]nicotinamide] | 10.2 nM
CC(C)(O)CNC(=O)[C@@H]1CCC[C@H](NC(=O)c2ccc(-c3cccc(F)c3)nc2)C1 (stereo in doubt) [Example 195, 6-(3-Fluorophenyl)-N-{(1S,3R)-3-[(2-hydroxy-2-methylpropyl)carbamoyl]cyclohexyl}nicotinamide] | 11.8 nM
O=C(N[C@H]1CCC[C@@H](CN2CC(O)C2)C1)c1ccc(-c2cccc(F)c2)nc1 (stereo in doubt) [Example 256, 6-(3-Fluorophenyl)-N-{(1S,3R)-3-[(3-hydroxyazetidin-1-yl)methyl]cyclohexyl}nicotinamide] | 44.1 nM
O=C(NC1(c2ccccn2)CC1)c1ccc(-c2cccc(F)c2)nc1 [Example 1, 6-(3-Fluorophenyl)-N-(1-pyridin-2-ylcyclopropyl)nicotinamide] | 64.9 nM
COC(=O)C1(NC(=O)c2ccc(-c3cccc(F)c3)nc2)CC1 [Example 2, Methyl 1-({[6-(3-fluorophenyl)pyridin-3-yl]carbonyl}amino)cyclopropanecarboxylate] | 319 nM
COC(=O)C1(NC(=O)c2ccc(-c3cccc(C)c3)nc2)CC1 [Example 3, Methyl 1-({[6-(3-methylphenyl)pyridin-3-yl]carbonyl}amino)cyclopropanecarboxylate] | 246 nM
COC(=O)C1(NC(=O)c2ccc(-c3cccc(OC)c3)nc2)CC1 [Example 4, Methyl 1-({[6-(3-methoxyphenyl)pyridin-3-yl]carbonyl}amino)cyclopropanecarboxylate] | ≥ 1000 nM
COC(=O)C1(NC(=O)c2ccc(-c3ccc(F)cc3)nc2)CC1 [Example 5] | ≥ 1000 nM
O=C(NC1CCCC1)c1ccc(-c2cccc(F)c2)nc1 [Example 9, N-Cyclopentyl-6-(3-fluorophenyl)nicotinamide] | 7.11 nM
COC[C@H]1CCC[C@H]1NC(=O)c1ccc(-c2cccc(F)c2)nc1 [Example 10] | 94.3 nM
O=C(NC1CCCCC1O)c1ccc(-c2cccc(F)c2)nc1 (stereo not drawn) [Example 17, 6-(3-Fluorophenyl)-N-(2-hydroxycyclohexyl)nicotinamide] | 2.87 nM
O=C(NC1CCCCC1)c1ccc(-c2cccc(F)c2)nc1 [Example 18, N-Cyclohexyl-6-(3-fluorophenyl)nicotinamide] | 7.72 nM
Cc1cccc(-c2ccc(C(=O)NC3CCCCC3)cn2)c1 [Example 19, N-Cyclohexyl-6-(3-methylphenyl)nicotinamide] | 10.2 nM
COc1cccc(-c2ccc(C(=O)NC3CCCCC3)cn2)c1 [Example 20, N-Cyclohexyl-6-(3-methoxyphenyl)nicotinamide] | 105 nM

SMILES | IC50
O=C(NC1CCCCC1)c1ccc(-c2ccccc2)nc1 [Example 21, N-Cyclohexyl-6-phenylnicotinamide] | 1.66 nM
O=C(NC1CCCCC1)c1ccc(-c2ccc(F)cc2)nc1 [Example 22, N-Cyclohexyl-6-(4-fluorophenyl)nicotinamide] | 40.8 nM
O=C(N[C@@H]1CCCC[C@@H]1CO)c1ccc(-c2cccc(F)c2)nc1 [Example 24] | 20.1 nM
O=C(N[C@H]1CCCC[C@@H]1O)c1ccc(-c2cccc(F)c2)nc1 [Example 25] | 22.3 nM
CC(C)(O)C1CCC(NC(=O)c2ccc(-c3cccc(F)c3)nc2)CC1 (stereo not drawn) [Example 48, 6-(3-Fluorophenyl)-N-[4-(1-hydroxy-1-methylethyl)cyclohexyl]nicotinamide] | 0.614 nM
O=C(N[C@H]1CC[C@H](O)CC1)c1ccc(-c2cccc(F)c2)nc1 [Example 104, 6-(3-Fluorophenyl)-N-(trans-4-hydroxycyclohexyl)nicotinamide] | 2.29 nM
CN(C)CCCNC(=O)[C@H]1CC[C@H](NC(=O)c2ccc(-c3cccc(F)c3)nc2)CC1 [Example 113A, N-(trans-4-{[3-(dimethylamino)propyl]carbamoyl}cyclohexyl)-6-(3-fluorophenyl)nicotinamide] | 21.1 nM
O=C(N[C@H]1CC[C@H](C(=O)N[C@@H]2CCNC2=O)CC1)c1ccc(-c2cccc(F)c2)nc1 [Example 113B, 6-(3-fluorophenyl)-N-(trans-4-{[(3R)-2-oxopyrrolidin-3-yl]carbamoyl}cyclohexyl)nicotinamide] | 7 nM
O=C(N[C@H]1CC[C@H](C(=O)N[C@H]2CCNC2=O)CC1)c1ccc(-c2cccc(F)c2)nc1 [Example 113C, 6-(3-fluorophenyl)-N-(trans-4-{[(3S)-2-oxopyrrolidin-3-yl]carbamoyl}cyclohexyl)nicotinamide] | 7.4 nM
N[C@H]1CCCC[C@H]1NC(=O)[C@H]1CC[C@H](NC(=O)c2ccc(-c3cccc(F)c3)nc2)CC1 [Example 113D, N-(trans-4-{[(1R,2S)-2-aminocyclohexyl]carbamoyl}cyclohexyl)-6-(3-fluorophenyl)nicotinamide] | 10.8 nM
O=C(N[C@H]1CC[C@H](C(=O)N[C@@H]2CCOC2)CC1)c1ccc(-c2cccc(F)c2)nc1 [Example 113E, 6-(3-fluorophenyl)-N-{trans-4-[(3R)-tetrahydrofuran-3-ylcarbamoyl]cyclohexyl}nicotinamide] | 8.8 nM
O=C(N[C@H]1CC[C@H](C(=O)NCCCO)CC1)c1ccc(-c2cccc(F)c2)nc1 [Example 113G, 6-(3-fluorophenyl)-N-{trans-4-[(3-hydroxypropyl)carbamoyl]cyclohexyl}nicotinamide] | 4.5 nM
O=C(N[C@H]1CC[C@H](C(=O)NCCN2CCCCC2)CC1)c1ccc(-c2cccc(F)c2)nc1 [Example 113H, 6-(3-fluorophenyl)-N-{trans-4-[(2-piperidin-1-ylethyl)carbamoyl]cyclohexyl}nicotinamide] | 46 nM
COCCNC(=O)[C@H]1CC[C@H](NC(=O)c2ccc(-c3cccc(F)c3)nc2)CC1 [Example 113I, 6-(3-fluorophenyl)-N-{trans-4-[(2-methoxyethyl)carbamoyl]cyclohexyl}nicotinamide] | 10.5 nM
CC[C@@H](O)C(=O)N[C@H]1CC[C@H](NC(=O)c2ccc(-c3cccc(F)c3)nc2)CC1 [Example 113J, 6-(3-fluorophenyl)-N-(trans-4-{[(2R)-2-hydroxybutanoyl]amino}cyclohexyl)nicotinamide] | 6.6 nM
CC(C)(N)C(=O)N[C@H]1CC[C@H](NC(=O)c2ccc(-c3cccc(F)c3)nc2)CC1 [Example 113K, 6-(3-fluorophenyl)-N-{trans-4-[(2-methylalanyl)amino]cyclohexyl}nicotinamide] | 9.6 nM
